In ChEMBL document CHEMBL4371049, “Semi-synthesis and anti-tumor activity of novel 25-OCH3-PPD derivatives incorporating aromatic moiety” (Bioorg Med Chem Lett, 2019):
pIC50: −log10 of the molar value.

Key:
Format in all cases: functional, cell-based
BGC-823 = assay: Antiproliferative activity against human BGC823 cells after 48 hrs by MTT assay; conditions: BGC-823, 48 h
HepG2 = assay: Antiproliferative activity against human HepG2 cells after 48 hrs by MTT assay; conditions: HepG2, 48 h
PC-3 = assay: Antiproliferative activity against human PC3 cells after 48 hrs by MTT assay; conditions: PC-3, 48 h
MCF7 = assay: Antiproliferative activity against human MCF7 cells after 48 hrs by MTT assay; conditions: MCF7, 48 h
DU-145 = assay: Antiproliferative activity against human DU145 cells after 48 hrs by MTT assay; conditions: DU-145, 48 h

Structure (SMILES)	pIC50 (BGC-823)	pIC50 (HepG2)	pIC50 (PC-3)	pIC50 (MCF7)	pIC50 (DU-145)
COC(C)(C)CCC[C@@](C)(O)[C@H]1CC[C@]2(C)[C@@H]1[C@H](OC(=O)c1ccc(Br)cc1)C[C@@H]1[C@@]3(C)CC[C@H](OC(=O)c4ccc(Br)cc4)C(C)(C)[C@@H]3CC[C@]12C	< 4.30	< 4.30	< 4.30	< 4.30	< 4.30
COC(C)(C)CCC[C@@](C)(O)[C@H]1CC[C@]2(C)[C@@H]1[C@H](O)C[C@@H]1[C@@]3(C)CC[C@H](OC(=O)c4cccc(C)c4)C(C)(C)[C@@H]3CC[C@]12C	< 4.30	4.42	< 4.30	< 4.30	4.34
COC(C)(C)CCC[C@@](C)(O)[C@H]1CC[C@]2(C)[C@@H]1[C@H](O)C[C@@H]1[C@@]3(C)CC[C@H](OC(=O)/C=C/c4ccc(F)cc4)C(C)(C)[C@@H]3CC[C@]12C	4.74	4.57	4.75	4.63	4.69
COC(C)(C)CCC[C@@](C)(O)[C@H]1CC[C@]2(C)[C@@H]1[C@H](OC(=O)c1ccccc1C)C[C@@H]1[C@@]3(C)CC[C@H](O)C(C)(C)[C@@H]3CC[C@]12C	< 4.30	< 4.30	< 4.30	< 4.30	< 4.30
COC(C)(C)CCC[C@@](C)(O)[C@H]1CC[C@]2(C)[C@@H]1[C@H](OC(=O)c1ccc(I)cc1)C[C@@H]1[C@@]3(C)CC[C@H](O)C(C)(C)[C@@H]3CC[C@]12C	< 4.30	< 4.30	< 4.30	< 4.30	< 4.30
COC(C)(C)CCC[C@@](C)(O)[C@H]1CC[C@]2(C)[C@@H]1[C@H](OC(=O)/C=C/c1ccc(F)cc1)C[C@@H]1[C@@]3(C)CC[C@H](OC(=O)/C=C/c4ccc(F)cc4)C(C)(C)[C@@H]3CC[C@]12C	< 4.30	4.38	< 4.30	< 4.30	4.46
COC(C)(C)CCC[C@@](C)(O)[C@H]1CC[C@]2(C)[C@@H]1[C@H](O)C[C@@H]1[C@@]3(C)CC[C@H](OC(=O)c4cc(I)ccc4Cl)C(C)(C)[C@@H]3CC[C@]12C	< 4.30	4.54	< 4.30	4.53	4.51
COC(C)(C)CCC[C@@](C)(O)[C@H]1CC[C@]2(C)[C@@H]1[C@H](OC(=O)c1cc(C)cc(C)c1)C[C@@H]1[C@@]3(C)CC[C@H](OC(=O)c4cc(C)cc(C)c4)C(C)(C)[C@@H]3CC[C@]12C	< 4.30	< 4.30	< 4.30	< 4.30	< 4.30
COC(C)(C)CCC[C@@](C)(O)[C@H]1CC[C@]2(C)[C@@H]1[C@H](O)C[C@@H]1[C@@]3(C)CC[C@H](O)C(C)(C)[C@@H]3CC[C@]12C	4.44	4.44	4.40	4.50	4.39
COC(C)(C)CCC[C@@](C)(O)[C@H]1CC[C@]2(C)[C@@H]1[C@H](O)C[C@@H]1[C@@]3(C)CC[C@H](OC(=O)/C=C/c4ccccc4)C(C)(C)[C@@H]3CC[C@]12C	4.54	4.58	4.43	4.46	4.40
COC(C)(C)CCC[C@@](C)(O)[C@H]1CC[C@]2(C)[C@@H]1[C@H](OC(=O)c1ccccc1I)C[C@@H]1[C@@]3(C)CC[C@H](OC(=O)c4ccccc4I)C(C)(C)[C@@H]3CC[C@]12C	< 4.30	< 4.30	< 4.30	< 4.30	< 4.30
COC(C)(C)CCC[C@@](C)(O)[C@H]1CC[C@]2(C)[C@@H]1[C@H](OC(=O)/C=C/c1ccccc1)C[C@@H]1[C@@]3(C)CC[C@H](OC(=O)/C=C/c4ccccc4)C(C)(C)[C@@H]3CC[C@]12C	< 4.30	< 4.30	< 4.30	< 4.30	< 4.30
COC(C)(C)CCC[C@@](C)(O)[C@H]1CC[C@]2(C)[C@@H]1[C@H](OC(=O)c1ccccc1[N+](=O)[O-])C[C@@H]1[C@@]3(C)CC[C@H](OC(=O)c4ccccc4[N+](=O)[O-])C(C)(C)[C@@H]3CC[C@]12C	4.31	< 4.30	< 4.30	4.43	4.53
COC(C)(C)CCC[C@@](C)(O)[C@H]1CC[C@]2(C)[C@@H]1[C@H](O)C[C@@H]1[C@@]3(C)CC[C@H](OC(=O)/C=C/c4ccc(Cl)cc4)C(C)(C)[C@@H]3CC[C@]12C	4.59	4.57	4.63	4.68	4.48
COC(C)(C)CCC[C@@](C)(O)[C@H]1CC[C@]2(C)[C@@H]1[C@H](O)C[C@@H]1[C@@]3(C)CC[C@H](OC(=O)c4ccccc4[N+](=O)[O-])C(C)(C)[C@@H]3CC[C@]12C	5.10	4.92	4.83	5.07	4.94
COC(C)(C)CCC[C@@](C)(O)[C@H]1CC[C@]2(C)[C@@H]1[C@H](O)C[C@@H]1[C@@]3(C)CC[C@H](OC(=O)c4cc(C)cc(C)c4)C(C)(C)[C@@H]3CC[C@]12C	< 4.30	< 4.30	< 4.30	4.32	< 4.30
COC(C)(C)CCC[C@@](C)(O)[C@H]1CC[C@]2(C)[C@@H]1[C@H](OC(=O)c1cc([N+](=O)[O-])cc([N+](=O)[O-])c1)C[C@@H]1[C@@]3(C)CC[C@H](O)C(C)(C)[C@@H]3CC[C@]12C	< 4.30	< 4.30	< 4.30	< 4.30	< 4.30
